Measured values from patent publication US10316017B2, “COT modulators and methods of use thereof” (Gilead Sciences, Inc., priority 2015, dated 2019).
Read-outs that look alike come from different tables or passages of the source.

Assays:
[1] = system: TNFα production in LPS-stimulated human monocytes; assay: Cot Monocyte TNFα Cell Based Assay; settings: for EC50: Homo sapiens, Monocyte, read-out: EC50 TNF
Method: Example 60: Cot Monocyte TNFα Cell Based Assay
The cell suspension was then plated at a density of 5,000 cells/well onto black 384 well Greiner clear bottom plates. Plates were pre-spotted with test compounds and serially diluted in DMSO where 200 nL/well were delivered using the Echo 550 acoustic liquid dispenser (Labcyte®) for a final DMSO concentration of 0.5%. Plated cells were treated with compound for 1 hour at 37° C. Cells were then stimulated with 50 pg/ml of LPS (Sigma) excluding outside columns of plate used for unstimulated cell control wells. Cells were incubated for an additional 4 hours at 37° C. Cells were then spun out of the media and 5 ul of sample were taken and analyzed for total TNFα content using the TR-FRET Human TNFα detection system (CisBio). This system utilizes two labeled antibodies (cryptate and XL665) that bind to two different epitopes of the TNFα molecule and produce FRET signal proportional to the concentration of TNFα in the sample. Detection antibodies are mixed 50:50 and 5 μL were dispensed into each well. Plates were covered with clear seals and incubated at room temp overnight. […] Percent of control was calculated as follows: % Control=100×(RatioSample−Ratio0% stimulation)/(Ratio100% Stimulation−Ratio0% Stimulation) where unstimulated cells (0% stimulation) were the negative control and stimulated cells (100% stimulation) were used as the positive control.

[2] = target: T1, human Cot catalytic domain (30-397 amino acids) (Homo sapiens, UniProt P41279); assay: High Throughput Cot Biochemical Assay (KinEASE TR-FRET); settings: Cot KinEASE TR-FRET, 400 μM ATP; read-out: IC50 HTRF
T1 construct: Purified recombinant human Cot catalytic domain (30-397 amino acids) was purchased from Cama Biosciences; purchased Cama Biosciences (so in the source)
T1 sequence (P41279 30-397): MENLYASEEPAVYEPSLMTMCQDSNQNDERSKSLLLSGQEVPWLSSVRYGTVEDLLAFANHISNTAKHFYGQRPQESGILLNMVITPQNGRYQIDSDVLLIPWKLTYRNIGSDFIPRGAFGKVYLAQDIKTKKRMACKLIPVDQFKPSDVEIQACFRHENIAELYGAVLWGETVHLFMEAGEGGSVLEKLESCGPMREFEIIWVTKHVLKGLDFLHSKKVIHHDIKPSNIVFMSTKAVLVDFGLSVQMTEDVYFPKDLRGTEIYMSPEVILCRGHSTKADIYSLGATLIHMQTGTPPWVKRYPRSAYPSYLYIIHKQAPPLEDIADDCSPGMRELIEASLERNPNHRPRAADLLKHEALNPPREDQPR
Outline: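 TR-FRET readout: Eu-labeled phospho-specific antibody binds XL665-tagged STK3 peptide after phosphorylation by Cot (aa 30-397, 5 nM). Conditions: 400 μM ATP, 1 μM peptide, MOPS pH 7.0 buffer with MgOAc, DTT, BSA, NP-40, glycerol; 0.1% DMSO.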

[3] = TNFα in LPS-stimulated human monocytes

Row | SMILES | EC50 [1, 3] [nM] | IC50 [2] [nM] | also measured
1 | CCN1CCC(n2cc(CNc3cc(Cl)c4ncc(C#N)c(Nc5ccc(F)c(Cl)c5)c4c3)nn2)CC1 [Comparative Example 1, reference compound] | – | – | IC50/EC50 [nM]: EC50 (TNFα, monocytes) ([1]; second value of the cell IC50/EC50, human monocytes, 50 pg/ml LPS, 4 hours): 310 nM
2 | CC(C)n1cc([C@@H](Nc2cc(Cl)c3ncc(C#N)c(Nc4ccc(F)c(Cl)c4)c3c2)c2cccc(COCCN(C)C)c2)nn1 [Compound 40] | 1260 | – | –
3 | [2H][C@](Nc1cc(Cl)c2ncc(C#N)c(NCC3(CC)CCC3)c2c1)(c1ccc(F)cc1)c1cn(C2CC2)nn1 [Example 261, (S)-8-chloro-6-(((1-cyclopropyl-1H-1,2,3-triazol-4-yl)(4-fluorophenyl)methyl-d)amino)-4-(((1-ethylcyclobutyl)methyl)amino)quinoline-3-carbonitrile] | 504 | – | –
4 | [2H][C@](Nc1cc(Cl)c2ncc(C#N)c(NC3CN4CCC3CC4)c2c1)(c1ccc(F)cc1)c1cn(C2CC2)nn1 (stereo partly drawn) [Example 317, 8-chloro-6-(((S)-(1-cyclopropyl-1H-1,2,3-triazol-4-yl)(4-fluorophenyl)methyl-d)amino)-4-(quinuclidin-3-ylamino)quinoline-3-carbonitrile] | – | – | EC50 [1]: 8260 nM
5 | [2H][C@](Nc1cc(Cl)c2ncc(C#N)c(NCC3(C)CCOCC3)c2c1)(c1ccc(F)cc1)c1cn(-c2cccnc2)nn1 [Example 332, (S)-8-chloro-6-(((4-fluorophenyl)(1-(pyridin-3-yl)-1H-1,2,3-triazol-4-yl)methyl-d)amino)-4-(((4-methyltetrahydro-2H-pyran-4-yl)methyl)amino)quinoline-3-carbonitrile] | 426 | – | –
6 | CC[C@@H](Nc1c(C#N)cnc2c(Cl)cc(N[C@@H](c3ccc(F)cc3)c3cn(-c4ccccc4)nn3)cc12)c1ccccc1 [Example 392, 8-chloro-6-(((S)-(4-fluorophenyl)(1-phenyl-1H-1,2,3-triazol-4-yl)methyl)amino)-4-(((R)-1-phenylpropyl)amino)quinoline-3-carbonitrile] | 308 | – | –
7 | Cc1ccccc1[C@H](Nc1cc(Cl)c2ncc(C#N)c(Nc3cnc(F)c(F)c3)c2c1)c1c[nH]nn1 [Example 396, (S)-8-chloro-4-((5,6-difluoropyridin-3-yl)amino)-6-((o-tolyl(1H-1,2,3-triazol-4-yl)methyl)amino)quinoline-3-carbonitrile] | 1230 | – | –
8 | N#Cc1cnc2c(Cl)cc(N[C@@H](c3ccccc3)c3c[nH]nn3)cc2c1Nc1cnc(F)c(F)c1 [Example 582, (S)-8-chloro-4-((5,6-difluoropyridin-3-yl)amino)-6-((phenyl(1H-1,2,3-triazol-4-yl)methyl)amino)quinoline-3-carbonitrile] | 734 | – | –
9 | CC(C)(C)N1CCC(n2cc([C@@H](Nc3cc(Cl)c4ncc(C#N)c(Nc5csc(Cl)c5)c4c3)c3ccccc3)nn2)CC1 [Example 641, (S)-6-(((1-(1-(tert-butyl)piperidin-4-yl)-1H-1,2,3-triazol-4-yl)(phenyl)methyl)amino)-8-chloro-4-((5-chlorothiophen-3-yl)amino)quinoline-3-carbonitrile] | 1530 | – | –
10 | CC(C)(C)N1CCC(n2cc([C@@H](Nc3cc(Cl)c4ncc(C#N)c(Nc5cc(F)c(F)c(Cl)c5)c4c3)c3ccc(Cl)cc3)nn2)CC1 [Example 661, (S)-6-(((1-(1-(tert-butyl)piperidin-4-yl)-1H-1,2,3-triazol-4-yl)(4-chlorophenyl)methyl)amino)-8-chloro-4-((3-chloro-4,5-difluorophenyl)amino)quinoline-3-carbonitrile] | 1090 | – | –
11 | CC(C)(C)N1CCC(n2cc([C@@H](Nc3cc(Cl)c4ncc(C#N)c(Nc5ccc(F)c(Cl)c5Cl)c4c3)c3ccc(Cl)cc3)nn2)CC1 [Example 665, (S)-6-(((1-(1-(tert-butyl)piperidin-4-yl)-1H-1,2,3-triazol-4-yl)(4-chlorophenyl)methyl)amino)-8-chloro-4-((2,3-dichloro-4-fluorophenyl)amino)quinoline-3-carbonitrile] | 1970 | – | –
12 | CC(C)(C)N1CCC(n2cc([C@@H](Nc3cc(Cl)c4ncc(C#N)c(Nc5cccc(Cl)c5)c4c3)c3ccc(Cl)cc3)nn2)CC1 [Example 776, (S)-6-(((1-(1-(tert-butyl)piperidin-4-yl)-1H-1,2,3-triazol-4-yl)(4-chlorophenyl)methyl)amino)-8-chloro-4-((3-chlorophenyl)amino)quinoline-3-carbonitrile] | 1240 | – | –
13 | N#CCn1cc([C@@H](Nc2cc(Cl)c3ncc(C#N)c(Nc4ccc(F)c(Cl)c4)c3c2)c2ccc(F)cc2)nn1 [Example 815, (S)-8-chloro-4-((3-chloro-4-fluorophenyl)amino)-6-(((1-(cyanomethyl)-1H-1,2,3-triazol-4-yl)(4-fluorophenyl)methyl)amino) quinoline-3-carbonitrile] | 311 | – | –
14 | CCN1CCC(n2cc(C(Nc3cc(Cl)c4ncc(C#N)c(Nc5ccc(F)c(Cl)c5)c4c3)c3ccc(Cl)c(Cl)c3)nn2)CC1 (centres unmarked) [Example 911, 8-chloro-4-((3-chloro-4-fluorophenyl)amino)-6-(((3,4-dichlorophenyl)(1-(1-ethylpiperidin-4-yl)-1H-1,2,3-triazol-4-yl)methyl)amino)quinoline-3-carbonitrile] | – | 36 | –
15 | N#Cc1cnc2c(Cl)cc(NC(c3ccccc3)c3cn(CC(=O)O)nn3)cc2c1Nc1ccc(F)c(Cl)c1 (centres unmarked) [Example 912, 2-(4-(((8-chloro-4-((3-chloro-4-fluorophenyl)amino)-3-cyanoquinolin-6-yl)amino)(phenyl)methyl)-1H-1,2,3-triazol-1-yl)acetic acid] | – | 60 | –
16 | N#Cc1cnc2c(Cl)cc(NC(c3ccc(Cl)cc3)c3cn(C4CCN(C(=O)OCc5ccccc5)CC4)nn3)cc2c1Nc1ccc(F)c(Cl)c1 (centres unmarked) [Example 913, benzyl 4-(4-(((8-chloro-4-((3-chloro-4-fluorophenyl)amino)-3-cyanoquinolin-6-yl)amino)(4-chlorophenyl)methyl)-1H-1,2,3-triazol-1-yl)piperidine-1-carboxylate] | – | > 1000 | –
17 | N#Cc1cnc2c(Cl)cc(NC(c3ccc(Cl)cc3)c3cn(C4CCNCC4)nn3)cc2c1Nc1ccc(F)c(Cl)c1 (centres unmarked) [Example 914, 8-chloro-4-((3-chloro-4-fluorophenyl)amino)-6-(((4-chlorophenyl)(1-(piperidin-4-yl)-1H-1,2,3-triazol-4-yl)methyl)amino)quinoline-3-carbonitrile] | – | 23 | –
18 | Cc1ccc(C(Nc2cc(Cl)c3ncc(C#N)c(Nc4ccc(F)c(Cl)c4)c3c2)c2cn(C3CCN(C(=O)OCc4ccccc4)CC3)nn2)cc1 (centres unmarked) [Example 915, benzyl 4-(4-(((8-chloro-4-((3-chloro-4-fluorophenyl)amino)-3-cyanoquinolin-6-yl)aminoXp-tolyl)methyl)-1H-1,2,3-triazol-1-yl)piperidine-1-carboxylate] | – | > 1000 | –
19 | Cc1ccc(C(Nc2cc(Cl)c3ncc(C#N)c(Nc4ccc(F)c(Cl)c4)c3c2)c2cn(C3CCNCC3)nn2)cc1 (centres unmarked) [Example 916, 8-chloro-4-((3-chloro-4-fluorophenyl)amino)-6-(((1-(piperidin-4-yl)-1H-1,2,3-triazol-4-yl)(p-tolyl)methyl)amino) quinoline-3-carbonitrile] | – | 48 | –
20 | CCN1CCC(n2cc(C(Nc3cc(Cl)c4ncc(C#N)c(Nc5ccc(F)c(Cl)c5)c4c3)c3ccc(C)cc3)nn2)CC1 (centres unmarked) [Example 917, 8-chloro-4-((3-chloro-4-fluorophenyl)amino)-6-(((1-(1-ethylpiperidin-4-yl)-1H-1,2,3-triazol-4-yl)(p-tolyl)methyl)amino)quinoline-3-carbonitrile] | – | 23 | –
21 | N#Cc1cnc2c(Cl)cc(NC(c3ccccc3)c3cn(C4CCNCC4)nn3)cc2c1Nc1ccc(F)c(Cl)c1 (centres unmarked) [Example 921, 8-chloro-4-((3-chloro-4-fluorophenyl)amino)-6-((phenyl (1-(piperidin-4-yl)-1H-1,2,3-triazol-4-yl)methyl)amino)quinoline-3-carbonitrile] | – | 8 | –
22 | CCN1CCC(n2cc(C(Nc3cc(Cl)c4ncc(C#N)c(Nc5ccc(F)c(Cl)c5)c4c3)c3ccccc3)nn2)CC1 (centres unmarked) [Example 922, 8-chloro-4-((3-chloro-4-fluorophenyl)amino)-6-(((1-(1-ethylpiperidin-4-yl)-1H-1,2,3-triazol-4-yl)(phenyl)methyl)amino) quinoline-3-carbonitrile] | – | 4 | –
23 | [2H][C@](Nc1cc(Cl)c2ncc(C#N)c(N[C@H](CCS(C)(=O)=O)c3ccccc3)c2c1)(c1ccc(F)cc1)c1cn(C2CC2)nn1 [Example 932, 8-chloro-6-(((1-cyclopropyl-1H-1,2,3-triazol-4-yl)(4-fluorophenyl)methyl-d)amino)-4-(((R)-3-(methylsulfonyl)-1-phenylpropyl)amino)quinoline-3-carbonitrile] | – | – | EC50 ([1]; LPS-stimulated human monocytes, TNFα TR-FRET): 505 nM
